In publication PMC4334441 (Analytical biochemistry, 2013):
Where two headings read alike, the source gives them in different places.

Assays:
Type in all cases: biochemical
[1] = molecular target: mammalian-expressed ADAM17_ECD (Homo sapiens, UniProt P78536); test: Inhibition studies; conditions: comparison of insect- and mammalian-produced ADAM17_ECD
[2] = molecular target: mammalian-produced ADAM17 ECD (Homo sapiens, UniProt P78536); test: Inhibition kinetics; conditions: for Ki/Ki′ (alpha) / inhibition mechanism: mammalian-produced ADAM17 ECD; for Ki/Ki′ (alpha): mixed-model inhibition; for inhibition mechanism: confirmed by Lineweaver-Burke plots
[3] = molecular target: insect-produced ADAM17 ECD (Homo sapiens, UniProt P78536); test: Inhibition kinetics; conditions: for Ki/Ki′ (alpha) / inhibition mechanism: insect-produced ADAM17 ECD; for Ki/Ki′ (alpha): mixed-model inhibition; for inhibition mechanism: confirmed by Lineweaver-Burke plots
[4] = molecular target: insect-produced ADAM17_ECD (R&D Systems) (Homo sapiens, UniProt P78536); test: ADAM17 active site titration with MMP-9/-13 inhibitor, insect-produced ADAM17
insect-produced ADAM17_ECD (R&D Systems), sequence (P78536 215-671 limits assumed): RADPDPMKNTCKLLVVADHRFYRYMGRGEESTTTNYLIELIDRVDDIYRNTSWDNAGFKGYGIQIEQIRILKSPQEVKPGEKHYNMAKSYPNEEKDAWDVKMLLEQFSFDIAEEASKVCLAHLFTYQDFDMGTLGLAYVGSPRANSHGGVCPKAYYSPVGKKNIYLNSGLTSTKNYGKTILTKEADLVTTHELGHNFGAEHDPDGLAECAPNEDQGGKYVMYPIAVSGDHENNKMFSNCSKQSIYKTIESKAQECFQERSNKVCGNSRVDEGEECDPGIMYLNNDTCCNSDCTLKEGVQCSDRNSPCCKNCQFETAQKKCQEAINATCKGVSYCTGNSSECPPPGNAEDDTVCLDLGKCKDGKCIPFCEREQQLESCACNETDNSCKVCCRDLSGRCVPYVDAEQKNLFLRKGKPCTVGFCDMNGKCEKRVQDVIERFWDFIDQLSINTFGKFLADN

mammalian-produced ADAM17 ECD, sequence (P78536 215-651 limits assumed): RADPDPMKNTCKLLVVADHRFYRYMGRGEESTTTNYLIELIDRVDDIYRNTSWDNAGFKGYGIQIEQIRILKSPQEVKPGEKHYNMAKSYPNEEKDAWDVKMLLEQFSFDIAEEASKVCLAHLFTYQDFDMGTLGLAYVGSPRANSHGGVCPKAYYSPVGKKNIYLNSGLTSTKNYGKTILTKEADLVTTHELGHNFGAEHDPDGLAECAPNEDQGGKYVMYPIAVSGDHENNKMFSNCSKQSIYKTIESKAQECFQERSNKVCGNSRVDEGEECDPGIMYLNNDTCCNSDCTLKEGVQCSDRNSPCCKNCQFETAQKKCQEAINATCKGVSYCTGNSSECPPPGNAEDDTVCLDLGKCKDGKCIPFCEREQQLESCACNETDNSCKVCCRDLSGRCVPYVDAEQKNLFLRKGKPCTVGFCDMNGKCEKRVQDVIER
mammalian-expressed ADAM17_ECD, sequence (P78536 215-651 limits assumed): as above
insect-produced ADAM17 ECD, sequence (P78536 215-671 limits assumed): as the sequence (P78536 215-671 limits assumed) above

CC(C)C[C@H](CC(=O)NO)C(=O)N[C@H](C(=O)N[C@@H](C)C(=O)NCCN)C(C)(C)C [TAPI-2] was tested, and the “dose response curves for inhibition of insect- versus mammalian-expressed ADAM17” value [1] was “superimposable”, the Ki ([2]; mammalian-produced ADAM17, mixed inhibition model, non-linear regression) was 32 ± 5 nM and the “Ki/Ki′ (alpha)” value [2] was 2.27 ± 0.55. The inhibition mechanism ([2]; non-linear regression) was “mixed inhibition”, the Ki ([3]; insect-produced ADAM17, mixed inhibition model, non-linear regression) was 31 ± 1.4 nM and the “Ki/Ki′ (alpha)” value [3] was 1.76 ± 0.42. For the same compound, the inhibition mechanism ([3]; non-linear regression) was “mixed inhibition”.

For CC(=O)NO [AHA, N-acetohydroxamic acid], the “dose response curves for inhibition of insect- versus mammalian-expressed ADAM17” value [1] was “superimposable”.

In the case of COc1ccc(S(=O)(=O)N2CCN(C(=O)c3ccc(-c4ccccc4)cc3)CC2C(=O)NO)cc1 (centres unmarked) [MMP-9/-13 inhibitor, N-hydroxy-1-(4-methoxyphenyl)sulfonyl-4-(4-biphenylcarbonyl)piperazine-2-carboxamide], the “dose response curves for inhibition of insect- versus mammalian-expressed ADAM17” value [1] is reported as “superimposable”, the Ki [2] is reported as 1.8 ± 0.1 nM and the “Ki/Ki′ (alpha)” value [2] is reported as 0.99 ± 0.34. For the same compound, the inhibition mechanism ([2]; non-linear regression) was “pure non-competitive inhibition”, the “stoichiometry of ADAM17_ECD and MMP-9/-13 inhibitor (factor)” value ([4]; 10.5 nM divided by enzyme concentration 0.4 nM, Fig. 5B) was 26.3 and the “concentration of inhibitor necessary to produce 100% inhibition of ADAM17” value ([4]; titration, enzyme concentration 0.4 nM, Fig. 5A) was 10.5 nM. For the same compound, the Ki [3] was 3.1 ± 0.2 nM, the “Ki/Ki′ (alpha)” value [3] was 0.91 ± 0.26 and the inhibition mechanism ([3]; non-linear regression) was “pure non-competitive inhibition”.
